Where “and” joins values, the source holds several entries; their conditions need not be identical. Identical values can stand only once.
Columns and labels:
[1] = tested on: C2C12 mouse skeletal myoblasts; assay: Carotenoid quantification by quantitative HPLC in engineered C2C12s; assay type: cell-based; conditions: pCrtB/I/Y C2C12s
[2] = tested on: primary bovine satellite cells (BSCs); assay: Carotenoid quantification by quantitative HPLC in engineered BSCs; assay type: cell-based; conditions: for Effect of ketoconazole and puromycin conditioning on β-carotene: pCrtB/I/Y BSCs
pCrtB/I/Y BSCs [3] = assay: GFP expression by flow cytometry under puromycin selection, BSCs; assay type: cell-based, bovine
Source text: (§1) Carotenoid optimization—Two methods were explored for optimizing carotenoid production in pCrtB/I/Y cells. The first focused on increasing gene expression by increasing puromycin selective pressure. The second focused on increasing levels of the carotenoid pathway precursor farnesyl pyrophosphate (FPP) by inhibiting downstream reactions in one of FPP's alternative metabolic pathways—cholesterol synthesis—using the small molecule ketoconazole (Sun et al., 2007). By exploring these two approaches, the possibility for a single approach to fail to address a rate-limiting step in carotenoid production was reduced. […] To determine an appropriate puromycin concentration for increasing enzyme expression, engineered cells were cultured in media containing 2.5 μg/mL puromycin (1× puro), 5 μg/mL puromycin (2× puro) or 10 μg/mL puromycin (4× puro), and relative GFP expression was determined via flow cytometry as a proximate measure of enzyme expression. Briefly, cells were cultured, harvested, and GFP was analyzed using a BD FACSCalibur (BD Sciences) or Attune N×T (ThermoFisher) flow cytometer. Appropriate gating was performed using pGFP and unmodified cells as positive and negative controls, and mean fluorescent intensity was determined. Data were analyzed with the FlowJo software (v10). […]

pCrtB/I/Y C2C12s = assay: GFP expression by flow cytometry under puromycin selection, C2C12s; assay type: cell-based, mouse; conditions: 4× concentration (10 μg/mL)
Source text: as §1

C2C12s = assay: Eight-day cell growth by dsDNA quantitation, C2C12s; assay type: cell-based, mouse; conditions: for Growth of engineered cells: over eight days, vs cells engineered with pGFP or pCrtB
Protocol: (§2) Growth and development of engineered cells—Growth of engineered BSCs and C2C12s was analyzed using a dsDNA quantitation kit (ThermoFisher #F2962) on days 1, 2, 4, 6, and 8 of culture. Cells were plated in 96-well plates for each time-point at a density of 1000 cells/well. At each time-point, media was removed from wells and plates were frozen at −80° C. After all time-points were frozen, plates were thawed to room temperature, and 100 uL of UltraPure water (ThermoFisher #10977023) was added to wells. Plates were incubated at 37° C. for one hour, re-frozen to −80° C., and re-thawed to room temperature. Wells were stained with 100 uL of Hoechst 33258 working solution. Fluorescence was measured with a Synergy H1 microplate reader (BioTek Instruments, Winooski, VT, USA) using excitation and emission filters centered at 360 and 460 nm, respectively. In parallel, a 96-well plate was seeded with a range of known cell densities, incubated for 12 hours, and measured using the same protocol to obtain a standard curve and convert fluorescence values to cell number. […]
Carotenoid optimization—Two methods were explored for optimizing carotenoid production in pCrtB/I/Y cells. […] To determine an appropriate puromycin concentration for increasing enzyme expression, engineered cells were cultured in media containing 2.5 μg/mL puromycin (1× puro), 5 μg/mL puromycin (2× puro) or 10 μg/mL puromycin (4× puro), and relative GFP expression was determined via flow cytometry as a proximate measure of enzyme expression. Briefly, cells were cultured, harvested, and GFP was analyzed using a BD FACSCalibur (BD Sciences) or Attune N×T (ThermoFisher) flow cytometer. Appropriate gating was performed using pGFP and unmodified cells as positive and negative controls, and mean fluorescent intensity was determined. Data were analyzed with the FlowJo software (v10). […]

engineered BSCs = assay: Thiobarbituric acid reactive substances (TBARS) lipid oxidation assay, raw or heated cells; assay type: cell-based, bovine
Protocol: Lipid oxidation—To analyze the antioxidant functionality of carotenoids in cells, a thiobarbituric acid reactive substances (TBARS) assay was performed. This assay measures malondialdehyde (MDA), a byproduct of unsaturated fatty acid oxidation, and so serves as a measure of lipid oxidation in cells. As lipid oxidation is often catalyzed by the processes that generate oxidative pressure, such as cooking of meat, the TBARS assay was performed on both “raw” cells, and cells that had been heated to mimic cooking. Briefly, engineered BSCs were cultured as previously described, harvested, and counted. 1.5 million cells were aliquoted to tubes for heated or unheated analysis, washed 1× in PBS, pelleted, and the supernatant PBS was removed. Collected cell pellets were stored overnight at 4° C. The next day, samples designated for heating were incubated for 10 minutes in a 100° C. heat block, cooled to room temperature, and placed on ice. All cells (heated and unheated) were suspended in 500 μL of PBS, incubated for 2 hours on ice, and sonicated on ice using a probe sonicator (Branson, St. Louis, MO, USA) at 15% intensity for 5×15 second pulses, with 20 second intervals between pulses. Next, the TBARS assay (Cayman Chemical #700870, Ann Arbor, MI, USA) was performed with 100 μL of sonicated cell lysates, following the manufacturers protocol and determining MDA by measuring absorbance at 535 nm compared to a standard curve of known MDA concentrations. The remainders of the cell lysates were frozen at −80° C. until protein quantification was performed via Bradford assay (ThermoFisher #23200) following the manufacturers protocol. Briefly, 5 μL of cell lysates were incubated for 10 minutes with 250 uL of Coomassie reagent, and the absorbance was measured at 595 nm and compared to a BSA standard curve. TBARS measurements were normalized with protein content for each sample in order to obtain corrected cellular MDA (mg/g protein).

pCrtB/I/Y BSCs [4] = assay: Pax7 and MHC immunostaining of engineered BSCs before and after differentiation; assay type: cell-based, bovine
Protocol: Immunofluorescence and cell characterization—To confirm the identity of isolated primary BSCs, cells were stained for Pax7 and Myosin Heavy Chain (MHC) before and after differentiation, respectively. These markers confirm the primary and terminal states of satellite cell myogenesis and therefore act to verify the nature and myogenicity of isolated cells. Proliferative cells and cells after one week of differentiation were fixed with 4% paraformaldehyde (ThermoFisher #AAJ61899AK) for 30 minutes, washed in PBS, permeabilized for 15 minutes using 0.5% Triton X (Sigma #T8787) in PBS, blocked for 45 minutes using 5% goat serum (ThermoFisher #16210064) in PBS with 0.05% sodium azide (Sigma #S2002), and washed with PBS containing 0.1% Tween-20 (Sigma #P1379). […]
Growth and development of engineered cells—Growth of engineered BSCs and C2C12s was analyzed using a dsDNA quantitation kit (ThermoFisher #F2962) on days 1, 2, 4, 6, and 8 of culture. […] Fluorescence was measured with a Synergy H1 microplate reader (BioTek Instruments, Winooski, VT, USA) using excitation and emission filters centered at 360 and 460 nm, respectively. In parallel, a 96-well plate was seeded with a range of known cell densities, incubated for 12 hours, and measured using the same protocol to obtain a standard curve and convert fluorescence values to cell number. […]

a range of cell types = conditions: cited from earlier work
BSCs [5] = assay: Eight-day cell growth by dsDNA quantitation, BSCs; assay type: cell-based, bovine; conditions: 5 μg/mL, pCrtB/I/Y BSCs, 8-day growth
Protocol: as §2
Carotenoid optimization—Two methods were explored for optimizing carotenoid production in pCrtB/I/Y cells. […] Briefly, cells were cultured, harvested, and GFP was analyzed using a BD FACSCalibur (BD Sciences) or Attune N×T (ThermoFisher) flow cytometer. […] Data were analyzed with the FlowJo software (v10). […]

BSCs [6] = assay: Four-day growth of BSCs in serum-free B8 media and FGF-2 dilutions; assay type: cell-based, bovine; conditions: four days, within B8 media
Protocol: Briefly, B8 media will be comprised of DMEM:F12 (1:1) supplemented with L-ascorbic acid 2-phosphate (200 ug/mL), insulin (20 ug/mL), transferrin (20 ug/mL), sodium selenite (20 ng/mL), FGF-2 (10 ng/mL), neuregulin 1 (NRG-1; 0.1 ng/mL), TGFβ-3 ([…]), and insulin-like growth factor 1 (IGF-1; 10 ng/mL). Formulations absent one or more growth factors will simultaneously generated, as will formulations lacking all growth factors but containing previously reported serum-replacements made from rapeseed peptide fractions, maitake mushroom extract, and silk-derived sericin proteins.

[7] = tested on: bovine satellite cells (BSCs); assay: Adipogenic transdifferentiation of BSCs with free fatty acids (Oil Red O staining); assay type: cell-based; conditions: 100 uM to 150 uM
Source text: This adipogenic transdifferentiation protocol will be further optimized through a fractional factorial experimental design, testing various concentrations oleic, myristoleic, linoleic, erucic, and elaidic acid. Lipid accumulation will be verified qualitatively with Oil Red O staining and quantified with the AdipoRed plate reader assay (Lonza). Transdifferentiation of satellite cells into mature adipocytes will enable muscle and fat components of cultured meat to be generated from a single cell source throughout this proposal, thus increasing project efficiency and impact.

pepsin = conditions: cited from earlier work
[8] = increasing levels of selection antibiotic
[9] = heated samples (10 minutes, 100° C.)

COc1ccc(C[C@H](N)C(=O)N[C@H]2[C@@H](O)[C@H](n3cnc4c(N(C)C)ncnc43)O[C@@H]2CO)cc1 [puromycin]
Effect of ketoconazole and puromycin together on β-carotene [1]: do not significantly increase β-carotene
Increase in carotenoid levels [2, 8]: ~3 fold
Effect of ketoconazole and puromycin conditioning on β-carotene [2]: additive increase in β-carotene
Effect on GFP expression (pCrtB/I/Y BSCs [3]; 4× concentration (10 μg/mL), BSCs): significant increase in GFP expression
Increase in gene expression (as shown by GFP expression) (pCrtB/I/Y BSCs [3]; [8]): two-fold
Effect on GFP expression (pCrtB/I/Y C2C12s): significant increase in GFP expression

pSBbi-(CMV-CrtY-T2A-CrtB-T2A-CrtI-P2A-GFP)-pur [pCrtB/I/Y]
Growth of engineered cells (C2C12s): higher growth over eight days
Cellular MDA (lipid oxidation) (engineered BSCs; [9]): 2.3 mg/g protein
Cellular MDA (lipid oxidation) (engineered BSCs; unheated samples): 1.1 mg/g protein
Myogenic potential (Pax7 and MHC staining) (pCrtB/I/Y BSCs [4]): maintenance of Pax7 expression and MHC-positive myotube formation

C=C(C)[C@@H]1CCC(C)=C[C@H]1c1c(O)cc(CCCCC)cc1O [cannabidiol]
Treatment range explored without mention of excess cell death (a range of cell types): 1-50 uM and 0.313-15.65 ug/mL

CC(=O)N1CCN(c2ccc(OCC3COC(Cn4ccnc4)(c4ccc(Cl)cc4Cl)O3)cc2)CC1 (stereo not drawn) [ketoconazole]
Effect of ketoconazole and puromycin together on β-carotene [1]: do not significantly increase β-carotene
Effect on growth (C2C12s; 5 μg/mL, pCrtB/I/Y C2C12s, 8-day growth): not significantly effect growth
Effect of ketoconazole and puromycin conditioning on β-carotene [2]: additive increase in β-carotene
Effect on growth (BSCs [5]): not significantly effect growth

FGF-2: fibroblast growth-factor 2
FGF-2 concentration showing significantly improved growth vs FGF-2-free B8 media (BSCs [6]): greater than or equal to 1.25 ng/mL

pSBbi-(CMV-CrtB-T2A-CrtI-P2A-GFP)-pur [pCrtB/I]
Growth of engineered cells (C2C12s): higher growth over eight days
Cellular MDA (lipid oxidation) (engineered BSCs; [9]): 1.7 mg/g protein
Cellular MDA (lipid oxidation) (engineered BSCs; unheated samples): 1.0 mg/g protein

CCCCC/C=C\C/C=C\CCCCCCCC(=O)O [linoleic acid]
Lipid accumulation (Oil Red O) [7]: Sparse lipid accumulation

pSBbi-(CMV-CrtB-T2A-)-pur [pCrtB]
Cellular MDA (lipid oxidation) (engineered BSCs; [9]): 3.6 mg/g protein
Cellular MDA (lipid oxidation) (engineered BSCs; unheated samples): 1.7 mg/g protein

B1: V565: anti-TNFα nanobody V565 (SEQ ID NO:7) (protein)
VHH: DVQLVESGGGLVQPGGSLKLSCAASGFDFSSHWMYWVRQAPGKELEWLSEINTNGLITHYGDSVKGRFTVSRNNAANKMYLELTRLEPEDTALYYCARNQHGLNKGQGTQVTVSS
Sensitivity to pepsin (pepsin): sensitive to pepsin
Stability in the gastric environment (pepsin): largely stable in the gastric environment
